Measured values as given in publication PMC8213057, “Targeting ALK2: An Open Science Approach to Developing Therapeutics for the Treatment of Diffuse Intrinsic Pontine Glioma” (Journal of Medicinal Chemistry, 2020).

Columns and labels:
[1] = molecular target: PKA (Homo sapiens, UniProt P17612); assay: biochemical; conditions: read-out: % enzyme activity, 1 μM; Run 1, Run 2
[2] = molecular target: MLK1/MAP3K9 (Homo sapiens, UniProt P80192); assay: biochemical; conditions: read-out: % enzyme activity, 1 μM; Run 1, Run 2
MLK1/MAP3K9, sequence (P80192 whole entry): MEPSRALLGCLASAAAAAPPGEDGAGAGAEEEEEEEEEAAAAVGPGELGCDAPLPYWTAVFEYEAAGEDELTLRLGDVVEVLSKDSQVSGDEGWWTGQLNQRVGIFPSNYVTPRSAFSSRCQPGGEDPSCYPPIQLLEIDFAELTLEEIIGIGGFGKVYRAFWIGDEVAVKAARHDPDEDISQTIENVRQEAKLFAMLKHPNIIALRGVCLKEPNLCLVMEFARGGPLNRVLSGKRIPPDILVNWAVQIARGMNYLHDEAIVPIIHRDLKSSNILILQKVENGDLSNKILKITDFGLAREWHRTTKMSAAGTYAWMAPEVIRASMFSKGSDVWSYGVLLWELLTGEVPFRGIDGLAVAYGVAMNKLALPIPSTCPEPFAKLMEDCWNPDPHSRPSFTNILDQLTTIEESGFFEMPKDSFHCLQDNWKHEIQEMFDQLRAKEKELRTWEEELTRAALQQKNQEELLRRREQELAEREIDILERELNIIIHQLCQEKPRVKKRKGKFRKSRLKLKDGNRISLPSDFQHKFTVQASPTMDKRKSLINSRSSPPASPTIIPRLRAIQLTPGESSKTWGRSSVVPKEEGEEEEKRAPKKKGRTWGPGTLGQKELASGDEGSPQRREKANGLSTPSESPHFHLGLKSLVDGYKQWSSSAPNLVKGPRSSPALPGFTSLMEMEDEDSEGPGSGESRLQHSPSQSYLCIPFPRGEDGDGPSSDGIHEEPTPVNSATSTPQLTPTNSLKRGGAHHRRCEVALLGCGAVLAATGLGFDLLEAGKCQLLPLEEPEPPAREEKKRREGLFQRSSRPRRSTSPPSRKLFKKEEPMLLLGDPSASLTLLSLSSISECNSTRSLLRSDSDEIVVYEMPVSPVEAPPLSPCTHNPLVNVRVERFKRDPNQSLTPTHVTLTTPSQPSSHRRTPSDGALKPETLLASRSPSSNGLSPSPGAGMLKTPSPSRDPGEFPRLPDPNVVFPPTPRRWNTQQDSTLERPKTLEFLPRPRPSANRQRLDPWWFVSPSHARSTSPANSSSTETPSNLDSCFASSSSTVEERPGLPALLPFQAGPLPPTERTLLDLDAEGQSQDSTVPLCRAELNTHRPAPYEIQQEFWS

[3] = molecular target: T1, STK22D/TSSK1 (Homo sapiens, UniProt Q9BXA7); conditions: 1 μM; Run 1, Run 2
T1 sequence (Q9BXA7 1-367): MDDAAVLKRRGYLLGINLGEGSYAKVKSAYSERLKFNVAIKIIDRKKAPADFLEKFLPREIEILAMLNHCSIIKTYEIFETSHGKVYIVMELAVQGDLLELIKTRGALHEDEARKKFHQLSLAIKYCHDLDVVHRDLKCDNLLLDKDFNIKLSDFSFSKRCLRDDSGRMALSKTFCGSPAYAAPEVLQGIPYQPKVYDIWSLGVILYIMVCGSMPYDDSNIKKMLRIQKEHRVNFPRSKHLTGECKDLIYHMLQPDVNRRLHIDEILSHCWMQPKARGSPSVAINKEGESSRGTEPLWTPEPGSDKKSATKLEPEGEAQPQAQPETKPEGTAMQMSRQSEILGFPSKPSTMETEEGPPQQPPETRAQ

[4] = molecular target: T2, BMPR2 (Homo sapiens, UniProt Q13873); assay: 375-member kinase panel; assay type: biochemical; conditions: Run 1, Run 2; for % enzyme activity: 1 μM; for remaining activity at 1 µM: read-out: % enzyme activity, 1 μM
T2 construct: purchased Reaction Biology Corporation
T2 sequence (Q13873 27-1038): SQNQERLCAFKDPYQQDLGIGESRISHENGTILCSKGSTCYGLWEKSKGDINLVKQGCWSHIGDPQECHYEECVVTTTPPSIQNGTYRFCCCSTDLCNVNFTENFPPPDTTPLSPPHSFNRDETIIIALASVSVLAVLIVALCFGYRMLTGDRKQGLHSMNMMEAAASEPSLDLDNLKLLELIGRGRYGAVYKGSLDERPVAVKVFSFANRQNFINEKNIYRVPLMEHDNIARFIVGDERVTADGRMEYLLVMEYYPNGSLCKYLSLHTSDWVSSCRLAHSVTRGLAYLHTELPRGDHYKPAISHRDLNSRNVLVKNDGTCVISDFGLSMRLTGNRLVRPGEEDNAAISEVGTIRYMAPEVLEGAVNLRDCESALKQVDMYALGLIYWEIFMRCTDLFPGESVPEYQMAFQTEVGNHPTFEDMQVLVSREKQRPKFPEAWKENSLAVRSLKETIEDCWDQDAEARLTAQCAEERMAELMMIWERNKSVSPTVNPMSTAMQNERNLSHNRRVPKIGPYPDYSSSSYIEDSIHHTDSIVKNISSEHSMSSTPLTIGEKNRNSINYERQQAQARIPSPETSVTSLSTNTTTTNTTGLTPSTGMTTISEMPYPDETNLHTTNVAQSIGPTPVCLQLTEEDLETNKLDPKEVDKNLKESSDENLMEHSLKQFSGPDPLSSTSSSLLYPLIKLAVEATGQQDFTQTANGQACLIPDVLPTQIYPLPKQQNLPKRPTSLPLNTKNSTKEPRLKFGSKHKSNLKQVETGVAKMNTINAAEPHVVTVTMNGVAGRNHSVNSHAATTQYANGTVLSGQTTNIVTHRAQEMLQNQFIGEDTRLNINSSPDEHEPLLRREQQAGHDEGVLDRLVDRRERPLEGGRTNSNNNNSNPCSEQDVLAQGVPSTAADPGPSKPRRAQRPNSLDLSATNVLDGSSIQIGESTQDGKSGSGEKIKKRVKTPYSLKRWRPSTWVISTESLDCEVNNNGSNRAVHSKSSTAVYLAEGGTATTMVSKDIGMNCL

[5] = molecular target: DAPK2 (Homo sapiens, UniProt Q9UIK4); assay: biochemical; conditions: read-out: % enzyme activity, 1 μM; Run 1, Run 2
DAPK2, sequence (Q9UIK4 whole entry): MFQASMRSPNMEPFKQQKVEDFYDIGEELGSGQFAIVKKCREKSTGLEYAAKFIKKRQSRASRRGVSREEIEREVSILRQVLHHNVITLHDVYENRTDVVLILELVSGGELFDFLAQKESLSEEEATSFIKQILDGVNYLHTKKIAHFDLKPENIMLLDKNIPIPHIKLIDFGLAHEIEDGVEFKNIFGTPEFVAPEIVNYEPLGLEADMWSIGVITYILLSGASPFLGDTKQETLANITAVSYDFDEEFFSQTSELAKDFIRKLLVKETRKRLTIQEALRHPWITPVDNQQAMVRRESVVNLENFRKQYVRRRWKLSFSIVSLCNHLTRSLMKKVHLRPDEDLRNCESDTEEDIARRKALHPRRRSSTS

[6] = molecular target: FLT4/VEGFR3 (Homo sapiens, UniProt P35916); assay: biochemical; conditions: read-out: % enzyme activity, 1 μM; Run 1, Run 2
FLT4/VEGFR3, sequence (P35916 25-1363): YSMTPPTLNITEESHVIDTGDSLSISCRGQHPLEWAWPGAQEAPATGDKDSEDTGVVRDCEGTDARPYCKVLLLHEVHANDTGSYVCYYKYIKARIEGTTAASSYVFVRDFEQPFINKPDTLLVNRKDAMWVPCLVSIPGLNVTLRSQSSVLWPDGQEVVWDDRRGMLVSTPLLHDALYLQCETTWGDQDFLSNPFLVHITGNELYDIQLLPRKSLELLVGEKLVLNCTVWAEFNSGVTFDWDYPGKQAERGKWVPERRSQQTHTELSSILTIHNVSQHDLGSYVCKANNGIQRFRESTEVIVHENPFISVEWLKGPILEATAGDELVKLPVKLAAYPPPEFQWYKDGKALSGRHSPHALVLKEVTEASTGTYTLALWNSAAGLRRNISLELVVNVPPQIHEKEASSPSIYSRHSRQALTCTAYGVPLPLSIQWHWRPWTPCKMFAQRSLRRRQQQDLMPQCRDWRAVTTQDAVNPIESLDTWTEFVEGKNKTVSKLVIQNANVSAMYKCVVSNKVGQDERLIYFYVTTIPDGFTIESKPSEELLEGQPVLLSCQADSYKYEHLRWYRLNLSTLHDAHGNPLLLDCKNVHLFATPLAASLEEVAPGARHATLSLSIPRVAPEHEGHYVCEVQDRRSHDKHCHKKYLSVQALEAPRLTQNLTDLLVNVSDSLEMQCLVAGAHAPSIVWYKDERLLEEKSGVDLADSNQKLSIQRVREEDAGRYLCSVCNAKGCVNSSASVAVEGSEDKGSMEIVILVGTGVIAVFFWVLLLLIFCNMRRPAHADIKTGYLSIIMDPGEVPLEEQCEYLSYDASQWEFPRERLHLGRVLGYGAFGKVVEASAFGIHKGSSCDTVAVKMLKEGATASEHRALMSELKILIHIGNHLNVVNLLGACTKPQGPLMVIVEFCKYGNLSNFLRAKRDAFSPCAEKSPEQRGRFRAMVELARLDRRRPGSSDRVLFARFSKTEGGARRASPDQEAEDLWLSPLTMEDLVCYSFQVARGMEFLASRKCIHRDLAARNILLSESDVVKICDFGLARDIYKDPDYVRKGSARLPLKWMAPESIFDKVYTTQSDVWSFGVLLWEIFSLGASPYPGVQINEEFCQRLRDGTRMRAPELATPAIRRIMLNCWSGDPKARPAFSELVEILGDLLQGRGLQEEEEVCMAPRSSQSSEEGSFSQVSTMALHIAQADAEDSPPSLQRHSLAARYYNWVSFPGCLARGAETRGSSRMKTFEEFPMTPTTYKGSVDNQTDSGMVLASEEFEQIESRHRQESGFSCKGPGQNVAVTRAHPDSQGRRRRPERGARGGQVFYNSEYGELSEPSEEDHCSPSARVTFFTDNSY

[7] = molecular target: T3, NEK9 (Homo sapiens, UniProt Q8TD19); assay: biochemical; conditions: read-out: % enzyme activity, 1 μM; Run 1, Run 2
T3 sequence (Q8TD19 1-979): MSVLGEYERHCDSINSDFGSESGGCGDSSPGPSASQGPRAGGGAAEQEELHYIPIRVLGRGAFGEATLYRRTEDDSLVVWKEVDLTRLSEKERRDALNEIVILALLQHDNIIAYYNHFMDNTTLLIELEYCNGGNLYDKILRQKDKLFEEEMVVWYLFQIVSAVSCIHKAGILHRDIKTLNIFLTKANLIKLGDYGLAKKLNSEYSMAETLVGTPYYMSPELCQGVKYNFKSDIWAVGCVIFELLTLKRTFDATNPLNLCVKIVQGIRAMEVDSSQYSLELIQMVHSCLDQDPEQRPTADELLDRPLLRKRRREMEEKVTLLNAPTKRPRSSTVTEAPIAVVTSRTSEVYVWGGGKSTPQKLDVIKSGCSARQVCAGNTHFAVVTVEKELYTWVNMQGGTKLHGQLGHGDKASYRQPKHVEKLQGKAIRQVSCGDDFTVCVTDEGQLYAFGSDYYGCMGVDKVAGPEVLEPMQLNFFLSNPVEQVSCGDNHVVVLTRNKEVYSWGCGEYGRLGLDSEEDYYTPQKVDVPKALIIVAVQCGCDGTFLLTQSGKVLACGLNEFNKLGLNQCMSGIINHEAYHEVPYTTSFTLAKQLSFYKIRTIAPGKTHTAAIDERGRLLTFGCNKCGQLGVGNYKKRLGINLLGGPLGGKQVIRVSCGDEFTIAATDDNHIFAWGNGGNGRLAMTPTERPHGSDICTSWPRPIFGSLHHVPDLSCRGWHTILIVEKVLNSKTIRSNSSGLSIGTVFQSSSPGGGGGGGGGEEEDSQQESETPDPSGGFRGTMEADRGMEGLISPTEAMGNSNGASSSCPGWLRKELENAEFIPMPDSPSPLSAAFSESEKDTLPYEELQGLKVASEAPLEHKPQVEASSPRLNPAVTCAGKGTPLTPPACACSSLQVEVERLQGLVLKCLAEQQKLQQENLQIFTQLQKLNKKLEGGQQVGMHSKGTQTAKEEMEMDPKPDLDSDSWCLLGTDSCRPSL

[8] = molecular target: COT1/MAP3K8 (Homo sapiens, UniProt P41279); conditions: 1 μM; Run 1, Run 2
COT1/MAP3K8, sequence (P41279 whole entry): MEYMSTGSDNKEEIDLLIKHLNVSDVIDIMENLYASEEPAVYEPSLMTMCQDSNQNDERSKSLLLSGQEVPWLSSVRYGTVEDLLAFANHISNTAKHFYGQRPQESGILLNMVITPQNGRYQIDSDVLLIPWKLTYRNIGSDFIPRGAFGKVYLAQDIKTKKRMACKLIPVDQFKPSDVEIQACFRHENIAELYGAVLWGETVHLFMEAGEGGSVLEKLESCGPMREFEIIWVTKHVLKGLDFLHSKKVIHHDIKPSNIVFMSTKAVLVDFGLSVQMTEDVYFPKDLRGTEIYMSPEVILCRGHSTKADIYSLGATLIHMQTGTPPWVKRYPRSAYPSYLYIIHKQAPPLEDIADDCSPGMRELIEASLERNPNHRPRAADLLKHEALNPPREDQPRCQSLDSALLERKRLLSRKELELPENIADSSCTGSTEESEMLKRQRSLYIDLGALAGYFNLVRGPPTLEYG

Structure (SMILES)	remaining activity at 1 µM [1] [%]	remaining activity at 1 µM [2] [%]	% enzyme activity [3] [%]	% enzyme activity [4] [%]	remaining activity at 1 µM [4] [%]	remaining activity at 1 µM [5] [%]	remaining activity at 1 µM [6] [%]	remaining activity at 1 µM [7] [%]	% enzyme activity [8] [%]
COc1cc(-c2cncc(-c3ccc(N4CCN(C)CC4)cc3)c2C)cc(F)c1C(N)=O [Compound 26a, 2-Fluoro-6-methoxy-4-(4-methyl-5-(4-(4-methylpiperazin-1-yl)phenyl)pyridin-3-yl)benzamide]	97.9	112	97.01	88.40	89.1	103	98.4	91.2	90.60
COc1cc(-c2cncc(-c3ccc(N4C[C@@H](C)N(C)[C@@H](C)C4)cc3)c2C)cc(F)c1C(N)=O [Compound 26c, 2-Fluoro-6-methoxy-4-(4-methyl-5-(4-((3R,5S)-3,4,5-trimethylpiperazin-1-yl)phenyl)pyridin-3-yl)benzamide]	96.9	99.8	99.16	100.11	104	100	97.1	91.6	93.89
